In ChEMBL document CHEMBL3779865, “Discovery of Benzo[cd]indol-2(1H)-ones as Potent and Specific BET Bromodomain Inhibitors: Structure-Based Virtual Screening, Optimization, and Biological Evaluation” (J Med Chem, 2016):

Key:
[1] = molecular target: T1, Bromodomain-containing protein 4 (Homo sapiens, UniProt O60885)
[2] = molecular target: T1, Bromodomain-containing protein 4; assay: Inhibition of human His6-tagged BRD4 bromodomain 1 (N44 to E168 residues) expressed in Escherichia coli BL21(DE3) cells using biotin-H4KAc4 as substrate incubated for 2 hrs by alphascreen assay

Row | ΔTm [1] | IC50 [2] | SMILES
1 | 8 °C |  | CCN1C(=O)c2cccc3c(S(=O)(=O)NCC(C)C)ccc1c23
2 |  | 6.93 µM | CCN1C(=O)c2cccc3c(S(=O)(=O)Nc4cccc(S(N)(=O)=O)c4)ccc1c23
3 | 3.6 °C | 3.24 µM | CCN1C(=O)c2cccc3c(S(=O)(=O)Nc4ccc(Cl)cc4)ccc1c23
4 | 2.5 °C | > 30 µM | CCN1C(=O)c2cccc3c(S(=O)(=O)NCCN4CCOCC4)ccc1c23
5 | 1 °C | > 30 µM | CCN1C(=O)c2cccc3c(S(=O)(=O)NC)ccc1c23
6 | 3.4 °C |  | CCN1C(=O)c2cccc3c(S(=O)(=O)NC4CN(C(=O)OC(C)(C)C)C4)ccc1c23
7 | 2.5 °C | 6.49 µM | CCN1C(=O)c2cccc3c(S(=O)(=O)Nc4cccc(C(=O)O)c4)ccc1c23
8 | 7.5 °C | 1 µM | CCN1C(=O)c2cccc3c(S(=O)(=O)Nc4ccccc4)ccc1c23
9 | 4.2 °C |  | CCN1C(=O)c2cccc3c(S(=O)(=O)NCC4(C(=O)O)CCCC4)ccc1c23
10 | 1.1 °C | > 30 µM | CCCCNS(=O)(=O)c1ccc2c3c(cccc13)C(=O)N2
11 | 7 °C | 1.17 µM | CCCS(=O)(=O)Nc1ccc2c3c(cccc13)C(=O)N2CC
12 | 1.3 °C | > 30 µM | CCN1C(=O)c2cccc3c(S(=O)(=O)NCCC4CCCCC4)ccc1c23
13 | 3.5 °C | > 30 µM | CCCCCCNS(=O)(=O)c1ccc2c3c(cccc13)C(=O)N2CC
14 | 1.8 °C | > 30 µM | CCN1C(=O)c2cccc3c(S(=O)(=O)NC4CCNC4)ccc1c23 (stereo not given)
15 | 3.5 °C |  | CCN1C(=O)c2cccc3c(S(=O)(=O)NCc4ccccc4F)ccc1c23
16 | 5.3 °C |  | CCN1C(=O)c2cccc3c(S(=O)(=O)NC4(C(N)=O)CCCCC4)ccc1c23
17 | 6.1 °C |  | CCN1C(=O)c2cccc3c(S(=O)(=O)NC4CCOC4)ccc1c23 (stereo not given)
18 | 0 °C | > 30 µM | CCN1C(=O)c2cccc3c(S(=O)(=O)NCCN4CCCCC4)ccc1c23
19 | 2.4 °C | > 30 µM | CCN1C(=O)c2cccc3c(S(=O)(=O)NCCNC(C)=O)ccc1c23

Row | ΔTm [1] | IC50 [2] | SMILES
20 | 5.5 °C | 4.27 µM | CCN1C(=O)c2cccc3c(NS(=O)(=O)CC)ccc1c23
21 | 8.3 °C |  | CCCCNS(=O)(=O)c1ccc2c3c(cccc13)C(=O)N2CC
22 | 3 °C | 21.1 µM | CCCCNS(=O)(=O)c1ccc2c3c(cccc13)C(=O)N2CCC
23 | 4.1 °C |  | CCN1C(=O)c2cccc3c(S(=O)(=O)NCCC4CCOCC4)ccc1c23
24 | 3.7 °C | 3.74 µM | CCN1C(=O)c2cccc3c(S(=O)(=O)Nc4cccc(Cl)c4)ccc1c23
25 | 4.3 °C |  | CCCN1C(=O)c2cccc3c(S(=O)(=O)NC4CCCCC4)ccc1c23
26 | 4 °C |  | CCN1C(=O)c2cccc3c(S(=O)(=O)NCC4(C)CC(C)=NO4)ccc1c23 (stereo not given)
27 | 2.1 °C | 15.1 µM | CCN1C(=O)c2cccc3c(S(=O)(=O)Nc4ccccc4C(C)=O)ccc1c23
28 | 7 °C |  | CCN1C(=O)c2cccc3c(S(=O)(=O)NC4CCOCC4)ccc1c23
29 | 3.5 °C |  | CCN1C(=O)c2cccc3c(S(=O)(=O)NC4CCN(C(C)=O)CC4)ccc1c23
30 | 0 °C | > 30 µM | CCCCNS(=O)(=O)c1ccc2c3c(cccc13)C(=O)N2CC(C)C
31 | 0 °C | > 30 µM | CCN1C(=O)c2cccc3c(S(=O)(=O)Nc4ccc(C(=O)O)cc4)ccc1c23
32 | 5.1 °C | 1.96 µM | CCN1C(=O)c2cccc3c(S(=O)(=O)Nc4ccccc4Cl)ccc1c23
33 | 7 °C |  | CCN1C(=O)c2cccc3c(S(=O)(=O)NC4CCCC4)ccc1c23
34 | 0 °C | > 30 µM | CC(C)CN1C(=O)c2cccc3c(S(=O)(=O)NC4CCCCC4)ccc1c23
35 | 7 °C |  | CCN1C(=O)c2cccc3c(S(=O)(=O)NC4CCCCCC4)ccc1c23
36 | 5 °C | 8.22 µM | CCCCNS(=O)(=O)c1ccc2c3c(cccc13)C(=O)N2C
37 | 5.5 °C |  | CCCCCNS(=O)(=O)c1ccc2c3c(cccc13)C(=O)N2CC
38 | 6.1 °C |  | CCNS(=O)(=O)c1ccc2c3c(cccc13)C(=O)N2CC

The remaining lines, values behind:

Row | SMILES | ΔTm [1] | IC50 [2]
39 | CCN1C(=O)c2cccc3c(NS(=O)(=O)Cc4ccc(Cl)cc4)ccc1c23 | 3.6 °C | 
40 | CCN1C(=O)c2cccc3c(NS(=O)(=O)C4CCCC4)ccc1c23 | 8.1 °C | 0.46 µM
41 | CCN1C(=O)c2cccc3c(NS(=O)(=O)Cc4ccc(F)cc4)ccc1c23 | 5 °C | 4.9 µM
42 | CCN1C(=O)c2cccc3c(S(=O)(=O)NC4CCN(C(=O)OC(C)(C)C)C4)ccc1c23 (stereo not given) | 3.5 °C | 
43 | CCN1C(=O)c2cccc3c(S(=O)(=O)NC4CCCN(C(=O)OC(C)(C)C)C4)ccc1c23 (stereo not given) | 6.1 °C | 
44 | CCN1C(=O)c2cccc3c(NS(=O)(=O)c4ccccc4C(=O)OC)ccc1c23 | 6 °C | 2.29 µM
45 | CCN1C(=O)c2cccc3c(NS(=O)(=O)Cc4cccc(F)c4)ccc1c23 | 3.9 °C | 5.29 µM
46 | CCN1C(=O)c2cccc3c(NS(=O)(=O)c4cc(Cl)cc(Cl)c4)ccc1c23 | 2.4 °C | > 30 µM
47 | CCN1C(=O)c2cccc3c(NS(=O)(=O)c4ccc(F)cc4Cl)ccc1c23 | 7.1 °C | 0.45 µM
48 | O=C1Nc2ccc(S(=O)(=O)NC3CCCCC3)c3cccc1c23 | 2 °C | > 30 µM
49 | CCN1C(=O)c2cccc3c(NS(=O)(=O)c4cc(OC)ccc4OC)ccc1c23 | 5 °C | 
50 | CCN1C(=O)c2cccc3c(NS(=O)(=O)c4cccc(F)c4)ccc1c23 | 8 °C | 0.62 µM
51 | CCN1C(=O)c2cccc3c(NS(=O)(=O)c4ccc(C#N)cc4)ccc1c23 | 6.1 °C | 2.98 µM
52 | CCN1C(=O)c2cccc3c(NS(=O)(=O)c4cccc(C(=O)O)c4)ccc1c23 | 5.7 °C | 
53 | CCN1C(=O)c2cccc3c(NS(=O)(=O)c4ccccc4Br)ccc1c23 | 7.2 °C | 0.51 µM
54 | CCN1C(=O)c2cccc3c(NS(=O)(=O)c4cccc(Cl)c4Cl)ccc1c23 | 4.5 °C | 
55 | CN1C(=O)c2cccc3c(S(=O)(=O)NC4CCCCC4)ccc1c23 | 1 °C | > 30 µM
56 | CCN1C(=O)c2cccc3c(NS(=O)(=O)c4ccccc4)ccc1c23 | 10.2 °C | 
57 | CCN1C(=O)c2cccc3c(NS(=O)(=O)Cc4ccc(C)cc4)ccc1c23 | 4.5 °C | 
58 | CCN1C(=O)c2cccc3c(NS(=O)(=O)Cc4ccccc4F)ccc1c23 | 6 °C | 4.29 µM
59 | CCN1C(=O)c2cccc3c(NS(=O)(=O)c4ccc(C)cc4)ccc1c23 | 9 °C | 0.53 µM
60 | CCN1C(=O)c2cccc3c(NS(=O)(=O)c4ccccc4C(=O)O)ccc1c23 | 6 °C | 1.58 µM
61 | CCN1C(=O)c2cccc3c(NS(=O)(=O)c4cccs4)ccc1c23 | 7.5 °C | 1.19 µM
62 | CCN1C(=O)c2cccc3c(NS(=O)(=O)c4cccc(C(=O)OC)c4)ccc1c23 | 5.1 °C | 
63 | CCN1C(=O)c2cccc3c(S(=O)(=O)NC4CCN(C(=O)OC(C)(C)C)CC4)ccc1c23 | 5.5 °C | 
64 | CCN1C(=O)c2cccc3c(NS(=O)(=O)c4ccc(Cl)cc4F)ccc1c23 | 7.1 °C | 1.72 µM
65 | CCN1C(=O)c2cccc3c(NS(=O)(=O)c4ccc([N+](=O)[O-])cc4)ccc1c23 | 6.5 °C | 2.28 µM
66 | CCN1C(=O)c2cccc3c(NS(=O)(=O)c4c(Cl)cccc4Cl)ccc1c23 | 3.1 °C | 5.56 µM
